Reference: patent US20070077268A1, “Hydrophobic carrier modified implants for beneficial agent delivery” (DePuy Products, Inc., priority 2005, published 2007)

Experiment: Cyclic loading test of UHMWPE pins, release of beta-carotene
Format: physicochemical
Conditions: pins soaked in 1.0 wt. % beta-carotene in squalane at 90° C. for 24 hours; peak load about 330 Newtons, 1.66 Hz, bovine calf serum, 37° C.
Protocol: UHMWPE (GUR 1050) is irradiated with gamma radiation (50 KGy or 5 Mrad) and melt annealed to quench free radicals. An AMTI Ortho-POD Wear Test Machine is used for the testing the UHMWPE cylindrical pin samples. The samples are ⅜ inch in diameter and 0.7 inch long, and are soaked in a 1.0 wt. % solution of beta-carotene in squalane at 90° C. for 24 hours. The samples are bright orange red in color, indicating the presence of beta-carotene.
A Paul loading curve with a peak load of about 330 Newtons is applied to the pins. The cycling frequency is 1.66 Hz. A 90% bovine calf serum, diluted with EDTA and sodium azide dissolved in reverse osmosis water, is used as lubricant. The temperature of the lubricant is 37° C.

release of beneficial agent from UHMWPE pins (colour change bright orange red to light orange): released, activated by the load
Structure (SMILES): CC1=C(/C=C/C(C)=C/C=C/C(C)=C/C=C/C=C(C)/C=C/C=C(C)/C=C/C2=C(C)CCCC2(C)C)C(C)(C)CCC1 [beta-carotene]
